Assay results from patent publication US8952221B2, “Enzymes that synthesize zingiberene” (Board of Trustees of Michigan State University, priority 2011, dated 2015).

Test system: LA2167-ZIS zingiberene synthase
Assay: Recombinant LA2167-ZIS enzyme activity assay, soluble protein from E. coli BL21 plus isoprenoid diphosphate substrate, headspace SPME GC-MS
Assay type: biochemical, Solanum habrochaites
Conditions: for Products synthesized by LA2167-ZIS from the supplied substrate: 10 μM substrate, 2 μg soluble protein, 30 min at 30° C., GC-MS extracted ion 93; for Peak Area % of products synthesized by recombinant LA2167-ZIS: substrate 2Z,6Z-Farnesyl diphosphate, SEQ ID NO:3 in pHIS8, E. coli BL21 DE3, GC-MS
Method: The synthetic gene was excised from the pUC57 cloning vector by digestion with BamHI and SalI and ligated into the pHIS8 vector previously linearized by digestion with the same enzymes. Recombinant clones were transformed into E. coli BL21 cells. A 5-mL log-phase culture of E. coli BL21 cells containing the expression vector was induced by addition of IPTG to a final concentration of 0.1 mM. The induced cells were incubated with agitation at 25° C. for 16 h, and then harvested by centrifugation at 10,000 g for 15 min. The cell pellet was resuspended in 1 mL extraction buffer (50 mM HEPES pH 8, 5% glycerol, 100 mM KCl, 7.5 mM MgCl2 containing 1 mM dithiothreitol (DTT)) prior to sonication. Soluble proteins were harvested after centrifugation at 10,000 g for 20 min. The supernatant was used for subsequent enzyme assays. Two micrograms of soluble protein were mixed with 10 μM of substrate (GPP, NPP, EE-FPP or 2Z, 6Z-FPP (Echelon Biosciences Inc., Salt Lake City, Utah)) in a 2-mL glass vial. Reactions were allowed to proceed for 30 min at 30° C., and the glass vial headspace was collected with a 65 μm polydimethylsiloxane-divinylbenzene solid-phase microextraction fiber (Supelco, Bellefonte, Pa.). After 5 min of exposure at 42° C., the SPME fiber was retracted and transferred to the GC injector port for desorption at 200° C. onto the GC column for 3 min. The terpenes were separated on a DB5 column (10 m length, inner diameter and 0.25 um). The GC-MS analysis was performed as described previously […] et al. (Plant Physiol 153, 1212-1223 (2010)).

Row | Molecule | Products synthesized by LA2167-ZIS from the supplied substrate | Peak Area % of products synthesized by recombinant LA2167-ZIS
1 | CC(C)=CCC/C(C)=C\CC/C(C)=C\COP(=O)(O)OP(=O)(O)O [2Z,6Z-farnesyl diphosphate, (2Z,6Z)-farnesyl diphosphate, reference compound] | zingiberene peak at about 4.65 is only observed | –
2 | CC(C)=CCCC(C)c1ccc(C)cc1 (stereo not drawn) [AR-curcumene] | – | 0.986%
3 | C=C(CCC=C(C)C)[C@@H]1CC=C(C)CC1 [Bisabolene beta] | – | 0.107%
4 | C=C(C)C(CO)C/C=C(/C)CCC=C(C)C (stereo not drawn) [Sesquilavandulol <Z>] | – | 0.228%
5 | C=C1C=CC(C(C)CCC=C(C)C)CC1 (stereo not drawn) [Sesquiphellandrene beta] | – | 0.567%
6 | CC(C)=CCC/C(C)=C/COP(=O)(O)OP(=O)(O)O [geranyl diphosphate, reference compound] | failed to synthesize any products | –
7 | CC(C)=CCC/C(C)=C\COP(=O)(O)OP(=O)(O)O [neryl diphosphate, reference compound] | failed to synthesize any products | –
8 | bergamotene | – | 0.273%
9 | zingiberene | – | 97.839%
